Experimental data from patent US20250122253A1, “REGULATING MICROTUBULE DYNAMICS AS A THERAPEUTIC TARGET FOR NERVE REPAIR” (City University of Hong Kong, priority 2023, published 2025).

Tests used:
[1] = tested on: regenerating sensory axons of the injured sciatic nerve; experiment: Sciatic nerve pinch test after sciatic nerve crush injury; format: in vivo, mice; details: 3 days post-injury
Description: Sciatic nerve crush or transection injury was performed in anesthetized adult male C57BL/6 or Fmn2^−/− mice (8-12 weeks old) as previously described. Briefly, the left sciatic nerve was exposed at mid-thigh level. For crush injury, the exposed nerve was crushed with smooth forceps (Dumont #5/45 Forceps, Fine Science Tools) at the sciatic notch for 15 seconds. For sciatic nerve transection, an epineural suture was first made at the level of external rotator muscle, just distal to the sciatic notch. The exposed nerve was then transected using a pair of ophthalmic microscissors just distal to the suture. After injury, the overlying muscle and skin were sutured using a 5-0 suture (Ethilon), and the mice were allowed to recover on a heated pad, and returned to their home cages after recovery. The surgeon was blinded to the genotypes and treatments.
For in vivo gene silencing of Fmn2 and/or Hdac5 in DRGs, AAV2/9-Fmn2-shRNA and AAV2/9-Hdac5-shRNA at a titer of 5×10^12 vg/mL (OBIO Technology) were injected into the sciatic nerve directly through a glass micropipette using a microinjector (Harvard Apparatus) two weeks before sciatic nerve crush injury. The mice were then subjected to sciatic nerve crush injury and sciatic nerve pinch test (FIG. 4) and animal behavioural assessment (FIG. 15). The expression of shRNAs was under the control of the U6 promoter, and the expression of the reporter gene eGFP was under the control of the CAG promoter. AAV2/9-scr-shRNA (Packgene) was used as a negative control (see FIG. 22 for the shRNA sequences). On a separate batch of animals, the knockdown efficiency in DRGs was assessed by Western blot analysis in AAV2-Fmn2-shRNA and AAV2-Hdac5-shRNA mice two weeks after the AAV injection (FIGS. S8B and S9). […]
Sciatic nerve pinch test was performed in the ipsilateral side 3 days after sciatic nerve crush injury. […] The distance (in mm) representing the length of axonal regrowth was recorded from the crushed site to the most distal point of sciatic nerve whereas initial withdrawal reflex was observed after pinching. […]

[2] = tested on: axotomized DRG neurons; experiment: Neurite outgrowth assay in dissociated DRG cultures; format: cell-based, mice; details: increasing dose; neurite outgrowth increased almost linearly
Description: Primary cultures of dissociated DRG neurons were prepared from adult male C57BL/6 or Fmn2^−/− mice (8-12 weeks old) and their age-matched WT littermates as described. Briefly, DRGs were dissected out from the mice and mildly digested in collagenase/dispase II (Roche Diagnostics) solution, trypsinized and mechanically dissociated using flame polished Pasteur pipettes with three different diameters. DRG neurons were incubated in full NB medium.
For ex vivo DRG explant culture, non-overlapping quadrant images were taken from each DRG explant, and total neurite length was measured using automated WIS-NeuroMath software (Weizmann Institute of Science). Data were obtained from at least 3 separate experiments with n=8 explants per dose. […] Total neurite length and average longest neurite length were quantified using automated WIS-NeuroMath software (Weizmann Institute of Science). Data was obtained from 3 independent experiments repeated in duplicates. βIII-tubulin-positive DRG neurons with intact neurites adjacent to the neuronal cell bodies were counted as healthy neurons for neurite outgrowth assay.

[3] = cited from earlier work

Question: With `Cc1cc(C)cc(OCC2CNC(=O)O2)c1` (stereo not shown) [metaxalone] as the compound, how does the “distal sensory axonal regrowth (length)” value ([1]; 0.25 μg/μl to the site of injury immediately after crush, twice per day, 3 consecutive days) read?
Answer: The value was 4.82±0.32 mm.

Question: What about the “axonal regrowth (length), delayed treatment” value ([1]; treatment delayed by 24 hours, 0.25 μg/μl to site of injury for 2 consecutive days) of the same compound?
Answer: The value was 4.50±0.25 mm.

Question: What about the “concentration at which neurite outgrowth reaches a plateau” value [2] of the same compound?
Answer: Its value is 20 µM.

Question: And the half-life [3]?
Answer: The half-life was 9 h.
